The values below come from US7767651B2, “Spiroketal derivatives and use thereof as diabetic medicine” (Chugai Seiyaku Kabushiki Kaisha, priority 2005, dated 2010).

The target of one data set is T1, human SGLT2 (Homo sapiens, UniProt P31639).
T1 construct: expressed in transfected cells; host or cells: CHO-K1
T1 sequence (P31639 1-672): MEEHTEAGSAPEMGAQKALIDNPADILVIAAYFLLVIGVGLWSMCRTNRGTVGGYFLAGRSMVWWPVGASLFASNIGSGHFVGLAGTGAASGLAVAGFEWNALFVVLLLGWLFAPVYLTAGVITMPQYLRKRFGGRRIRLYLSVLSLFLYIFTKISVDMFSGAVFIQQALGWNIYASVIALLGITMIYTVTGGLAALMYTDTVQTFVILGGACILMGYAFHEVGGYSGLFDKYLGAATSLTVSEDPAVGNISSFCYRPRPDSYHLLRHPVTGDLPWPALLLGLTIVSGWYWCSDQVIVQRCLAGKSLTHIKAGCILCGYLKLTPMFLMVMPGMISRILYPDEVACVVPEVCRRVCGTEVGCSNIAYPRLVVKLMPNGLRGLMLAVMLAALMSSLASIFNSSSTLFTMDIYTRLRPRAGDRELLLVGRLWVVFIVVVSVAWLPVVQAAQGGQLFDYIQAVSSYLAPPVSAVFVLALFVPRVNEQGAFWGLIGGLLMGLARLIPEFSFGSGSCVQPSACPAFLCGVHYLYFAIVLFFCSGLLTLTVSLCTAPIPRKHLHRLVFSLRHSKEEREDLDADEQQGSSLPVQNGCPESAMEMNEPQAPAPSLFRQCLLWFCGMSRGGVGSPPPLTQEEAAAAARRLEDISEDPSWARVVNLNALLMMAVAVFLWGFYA
The experiment in a line: Inhibitory activity against methyl-α-D-glucopyranoside uptake of human SGLT2. The class given is cell-based. The conditions noted are these: SGLT2 inhibition; methyl-α-D-(U-14C)glucopyranoside uptake in CHO-K1 cells stably expressing human SGLT2, 45 minutes at 37° C. The source says:
Evaluation of Inhibitory Activity Against methyl-α-D-glucopyranoside uptake of human Na^+-glucose cotransporter (SGLT1 and SGLT2)
Human SGLT2 cDNA was amplified by PCR with a cDNA library derived from human kidney (Clontech) as a template, synthetic DNA primers and KOD+ DNA Polymerase. The amplified cDNA was inserted into pcRII-Topo vector by using a Topo TA Cloning Dual Promoter kit. E. coli competent cells (TPO10) were transformed with the plasmid vector, cultured in LB medium containing ampicillin (50 mg/L) to grow ampicillin-resistant clones. The plasmid vector containing human SGLT2 cDNA was purified from the clone in a standard manner. Human SGLT2 cDNA added restriction enzyme recognition sites (Xho I at 5′-end, Hind III at 3′-end) was amplified by PCR with the plasmid vector as a template, synthetic DNA primers containing an additional restriction enzyme recognition site and KOD+ DNA Polymerase. This amplified cDNA was digested with Xho I and Hind III, and ligated into expression vector pcDNA3.1(−) digested with Xho I and Hind III by using a Rapid DNA Ligation kit. E. coli competent cells (DH5α) were transformed with the ligated expression vector and grown in ampicillin-containing LB medium. Human SGLT2 expression vector was purified from the ampicillin-resistant clone in a standard manner.
The human SGLT1 expression vector or the human SGLT2 expression vector was digested with the restriction enzyme Pvu I and transfected into CHO-Kl cells with FuGENE (Roche Diagonostics). After the transfection, the cells were cultured at 37° C. in the presence of 5% CO2 for about 3 weeks in DMEM medium (Gibco) containing penicillin (50 U/mL, SIGMA), streptomycin (50 mg/L, SIGMA), geneticin (200 mg/L, Nacalai Tesque, Inc., Japan) and 20% fetal bovine serum to obtain geneticin-resistant clones. Among these clones, clones stably expressing human SGLT1 or human SGLT2 were selected by the evaluating the sodium-dependent uptake activity of sugar (methyl-α-D-glucopyranoside). […]

The conditions of data set [1]: intravenously administered to rats; Nonpatent Document 2; cited from earlier work.
The subject of data set [2] is sugar transporters of the facilitated diffusion type. The conditions noted are these: aglycon of phloridzin; reported; cited from earlier work.

What is called IC50 is the concentration at which inhibition is half-maximal.

On human SGLT2, `CCc1ccc(Cc2ccc3c(c2)[C@]2(OC3)O[C@H](CO)[C@@H](O)[C@H](O)[C@H]2O)cc1` [Example 1, 1,1-Anhydro-1-C-[5-(4-ethylphenyl)methyl-2-(hydroxymethyl)phenyl]-β-D-glucopyranose] gave a concentration for half-maximal inhibition (IC50) of 4.2 nM.
For `O=C(CCc1ccc(O)cc1)c1c(O)cc(O)cc1O` [phloretin], the “adverse effect on intracerebral glucose levels” value in data set [1] is reported as “reducing intracerebral glucose levels”. Moreover, the “inhibition of sugar transporters of the facilitated diffusion type” value in data set [2] is “strongly inhibit”.
Take `CC(C)c1ccc(Cc2ccc3c(c2)[C@]2(OC3)O[C@H](CO)[C@@H](O)[C@H](O)[C@H]2O)cc1` [Example 4, 1,1-Anhydro-1-C-[5-(4-isopropylphenyl)methyl-2-(hydroxymethyl)phenyl]-β-D-glucopyranose]: at human SGLT2, the midpoint of inhibition, the IC50, lay at 5 nM.
The same measure, in the same setting: the same measure for `OC[C@H]1O[C@]2(OCc3ccc(Cc4cc5ccccc5s4)cc32)[C@H](O)[C@@H](O)[C@@H]1O` [Example 2, 1,1-Anhydro-1-C-[5-(2-benzothiophenyl)methyl-2-(hydroxymethyl)phenyl]-β-D-glucopyranose]: 4 nM.
